The values that follow come from publication PMC8876135, “The Catestatin-Derived Peptides Are New Actors to Fight the Development of Oral Candidosis” (International Journal of Molecular Sciences, 2022).

≈ marks a conversion by molar mass, not a printed value. Read-outs that look alike come from different tables or passages of the source. Residues, ends and D or L forms follow the SMILES beside them. *: point of attachment. Palmitoyl = CCCCCCCCCCCCCCCC(=O)* Some results are limits rather than exact numbers.

Holding throughout (format): cell-based
In one test the test system is C. lusitaniae “S”. Nature of the test: Susceptibility of Candida strains to antifungal drugs. Set-up: key to Susceptibility category: S: susceptible standard dosing regimen; R: resistant, therapeutic failure with increased exposure; I: susceptible increased exposure. The settings on record: strain C. lusitaniae “S”; for Susceptibility category: EUCAST breakpoints (CLSI for Caspofungin).

The subject of another test is C. glabrata “S”. The test is described as above. Also on record: key to Susceptibility category: S: susceptible standard dosing regimen; R: resistant, therapeutic failure with increased exposure; I: susceptible increased exposure. To be noted: strain C. glabrata “S”; for Susceptibility category: EUCAST breakpoints (CLSI for Caspofungin). As for the experimental part:
(§1) Strains of Candida albicans, Candida tropicalis and Candida glabrata, frequently found in cases of oral candidosis, were tested for L-bCtl and D-bCtl antimicrobial activity. The sensitive strain of C. albicans (ATCC 10231^TM) was provided by ATCC (Manassas, VA, USA). The resistant strain of C. albicans, the sensitive and resistant strains of C. tropicalis as well as the sensitive and resistant strains of C. glabrata were kindly provided by Dr Valérie Letscher-Bru (Laboratory of Parasitolology and Medical Mycology, Strasbourg, France).

For a further test, the system named is C. albicans “S”. The test is described as above. Also on record: key to Susceptibility category: S: susceptible standard dosing regimen; R: resistant, therapeutic failure with increased exposure; I: susceptible increased exposure. To be noted: strain C. albicans “S”; for Susceptibility category: EUCAST breakpoints (CLSI for Caspofungin). On the procedure:
as §1

The test system of another test is C. glabrata “R”. The test is described as above. Also on record: key to Susceptibility category: S: susceptible standard dosing regimen; R: resistant, therapeutic failure with increased exposure; I: susceptible increased exposure. To be noted: strain C. glabrata “R”; for Susceptibility category: EUCAST breakpoints (CLSI for Caspofungin). As for the experimental part: as §1

The subject of another test is C. tropicalis “R”. The test is described as above. Set-up: key to Susceptibility category: S: susceptible standard dosing regimen; R: resistant, therapeutic failure with increased exposure; I: susceptible increased exposure. To be noted: strain C. tropicalis “R”; for Susceptibility category: EUCAST breakpoints (CLSI for Caspofungin). On the procedure: as §1
A further test concerns C. albicans “R”. The test is described as above. The settings on record: strain C. albicans “R”; for Susceptibility category: EUCAST breakpoints (CLSI for Caspofungin). Also on record: key to Susceptibility category: S: susceptible standard dosing regimen; R: resistant, therapeutic failure with increased exposure; I: susceptible increased exposure. As for the experimental part:
as §1

The next test concerns C. tropicalis “S”. The test is described as above. The settings on record: strain C. tropicalis “S”; for Susceptibility category: EUCAST breakpoints (CLSI for Caspofungin). Set-up: key to Susceptibility category: S: susceptible standard dosing regimen; R: resistant, therapeutic failure with increased exposure; I: susceptible increased exposure. On the procedure:
as §1

Test [1] has as its system Candida albicans “S” (ATCC 10231). The settings on record: ATCC 10231, 24 h, pH 5.6. On the procedure:
as §1
(§2) Each Candida strain was first plated on agar plates and cultured for 24 h at 37 °C. After incubation, one colony per isolate was transferred into 5 mL of Sabouraud medium pH 5.6 (Sigma-Aldrich, Le Pont-de-Claix, France) supplemented with tetracycline (10 μg/mL) and cefotaxime (10 μg/mL) and incubated aerobically under agitation at 37 °C for 24 h. The resulting cultures were resuspended at an absorbance of 0.001 (OD600nm = 0.001) in Sabouraud medium. The OD600nm was evaluated with a spectrophotometer (BIO-RAD Smatspec^TM plus, Schiltigheim, France). In preliminary experiments, we tested RPMI-1640 culture and Sabouraud media. Similar data were obtained but the experiments were more reproducible with Sabouraud than with RPMI1640. Therefore, Sabouraud medium was used in the present study.
(§3) The yeasts (OD600nm = 0.001) were then plated on 96-well microplates and treated with different concentrations of the peptides of interest. After 24 h incubation at 37 °C under agitation, yeast growth was assessed by optical density (OD600nm) using a microplate spectrophotometer (Multiscan EX, Thermo Fisher Scientific, Waltham, MA, USA). All tests were performed in triplicate. The MIC (minimal inhibitory concentration), defined as the lowest concentration of drug able to inhibit 100% of the growth of a pathogen, was determined for the different peptides against all previously described Candida strains, using a modified Gompertz model.

Another test has as its system Candida albicans “R”. The settings on record: 24 h, pH 5.6. As for the experimental part: as §1, §2, §3
Where [2] appears, read: Clavispora lusitaniae, read-out: MIC.
The mark [3] stands for this setting: Nakaseomyces glabratus, read-out: MIC.
[4] abbreviates: Candida albicans, read-out: MIC.
Where [5] appears, read: Candida tropicalis, read-out: MIC.

As a reminder, the MIC is the smallest concentration in the dilution series that meets the test's criterion for growth inhibition.

On to `C[C@@H]1[C@H](O)[C@@H](C)/C=C/C=C/C=C/C=C/C=C/C=C/C=C/[C@H](O[C@@H]2O[C@H](C)[C@@H](O)[C@H](N)[C@@H]2O)C[C@@H]2O[C@](O)(C[C@@H](O)C[C@@H](O)[C@H](O)CC[C@@H](O)C[C@@H](O)CC(=O)O[C@H]1C)C[C@H](O)[C@H]2C(=O)O` [Amphotericin B], for which the MIC in the test with C. lusitaniae “S” (setting [2]) worked out at 0.75 µg/mL (≈ 0.812 µM); in the test with C. glabrata “S” (setting [3]), 0.125 µg/mL (≈ 0.135 µM); in the test with C. albicans “S” (setting [4]), 0.19 µg/mL (≈ 0.206 µM); in the test with C. glabrata “R” (setting [3]) it was 0.5 µg/mL (≈ 0.541 µM); in the test with C. tropicalis “R” (setting [5]) it was 0.125 µg/mL (≈ 0.135 µM); with C. albicans “R” (setting [4]) it was 0.125 µg/mL (≈ 0.135 µM). Besides, the MIC in the test on C. tropicalis “S” (setting [5]) turned out to be 0.125 µg/mL (≈ 0.135 µM). In addition, the Susceptibility category entry in the test on C. lusitaniae “S”, with C. glabrata “S”, in the test on C. albicans “S”, with C. glabrata “R”, in the test with C. tropicalis “R” and in the test on C. albicans “R” was “S” throughout. In addition, in the test on C. tropicalis “S”, the Susceptibility category entry is on record as “S”.
Take Caspofungin: the minimal inhibitory concentration (MIC) is listed as 0.125 µg/mL against C. lusitaniae “S”; 0.25 µg/mL against C. glabrata “S”; 0.094 µg/mL in the test on C. albicans “S”; 0.25 µg/mL in the test with C. glabrata “R”; 0.125 µg/mL in the test with C. tropicalis “R”; 0.047 µg/mL against C. albicans “R”. Also, in the test on C. tropicalis “S”, the MIC worked out at 0.125 µg/mL. The Susceptibility category result was “S” in the test with C. lusitaniae “S”; “I” in the test on C. glabrata “S”; “S” in the test on C. albicans “S”; “I” in the test on C. glabrata “R”; “S” in the test on C. tropicalis “R”; “S” in the test with C. albicans “R”. In addition, the Susceptibility category result in the test on C. tropicalis “S” is “S”.
Take `OC(Cn1cncn1)(Cn1cncn1)c1ccc(F)cc1F` [Fluconazole]: the MIC in the test on C. lusitaniae “S” (setting [2]) is 0.38 µg/mL (≈ 1.24 µM); in the test on C. glabrata “S” (setting [3]), 3 µg/mL (≈ 9.8 µM); with C. albicans “S” (setting [4]), 0.125 µg/mL (≈ 0.408 µM); in the test with C. glabrata “R” (setting [3]) it was more than 256 µg/mL; in the test with C. tropicalis “R” (setting [5]), 96 µg/mL (≈ 313 µM); in the test on C. albicans “R” (setting [4]), more than 256 µg/mL. Besides, the minimal inhibitory concentration (MIC) in the test on C. tropicalis “S” (setting [5]) was 0.5 µg/mL (≈ 1.63 µM). Besides, the Susceptibility category result was “S” with C. lusitaniae “S”; “I” in the test with C. glabrata “S”; “S” in the test with C. albicans “S”; “R” in the test on C. glabrata “R”; “R” with C. tropicalis “R”; “R” with C. albicans “R”. Further, the Susceptibility category result in the test with C. tropicalis “S” was “S”.
For `C[C@@H](c1ncncc1F)[C@](O)(Cn1cncn1)c1ccc(F)cc1F` [Voriconazole], the MIC with C. lusitaniae “S” (setting [2]) was 0.012 µg/mL (≈ 0.0344 µM); in the test on C. glabrata “S” (setting [3]) it was 0.032 µg/mL (≈ 0.0916 µM); in the test with C. albicans “S” (setting [4]), 0.002 µg/mL (≈ 0.00573 µM); in the test on C. glabrata “R” (setting [3]), 8 µg/mL (≈ 22.9 µM); with C. tropicalis “R” (setting [5]), 1.5 µg/mL (≈ 4.29 µM); in the test on C. albicans “R” (setting [4]), more than 32 µg/mL. Also, the MIC in the test on C. tropicalis “S” (setting [5]) worked out at 0.047 µg/mL (≈ 0.135 µM). Besides, the Susceptibility category entry is on record as “S” with C. lusitaniae “S”; “S” in the test with C. glabrata “S”; “S” with C. albicans “S”; “R” in the test with C. glabrata “R”; “R” with C. tropicalis “R”; “R” in the test with C. albicans “R”. Besides, the Susceptibility category entry in the test on C. tropicalis “S” was “S”.
In the case of `CCCCCCCCCCCCCCCC(=O)N[C@@H](CO)C(=O)N[C@@H](CO)C(=O)N[C@@H](CCSC)C(=O)N[C@@H](CCCCN)C(=O)N[C@@H](CC(C)C)C(=O)N[C@@H](CO)C(=O)N[C@@H](Cc1ccccc1)C(=O)N[C@@H](CCCNC(=N)N)C(=O)N[C@@H](C)C(=O)N[C@@H](CCCNC(=N)N)C(=O)NCC(=O)N[C@@H](Cc1ccc(O)cc1)C(=O)NCC(=O)N[C@@H](Cc1ccccc1)C(=O)N[C@@H](CCCNC(=N)N)C(=O)O` [Peptide P13] (Palmitoyl-SSMKLSFRARGYGFR-OH; C-terminus assumed), the “MIC C. albicans “S”” value in test [1] was more than 100 µg/mL. In addition, the “MIC C. albicans “R”” value against Candida albicans “R” is more than 100 µg/mL.
